In patent US12203060B1, “Cell culture” (FIBROFIND IP LIMITED, priority 2015, dated 2025):

Key:
[1] = tested on: precision cut liver slices (PCLS); experiment: Albumin production by precision cut liver slices cultured on CMR2 (albumin ELISA); format: cell-based; details: PCLS on CMR2, fat, fat+LPS or BSA vehicle for 48 h after a 24 h rest period; FIG. 27
Method: (§1) Liver tissue was placed in a 10 cm dish containing Hanks Buffered Saline Solution (HBSS+, Lonza, BE10-508F). Four to eight mm cores of liver tissue were made using a Stiefel Biopsy Punch. Cores were then transferred to a metal mould and submerged in 2.5-3.0% low gelling temperature agarose (Sigma, A9414) and then placed on ice for 2-5 minutes.
(§2) Once set, the cores in agarose were super-glued to a vibratome mounting stage and submersed in the media chamber in ice cold HBSS+prior to cutting on a Leica VT1200 S fully automated vibrating blade microtome. Liver tissue cores were cut at a speed of 0.3 mm/see, and an amplitude 2 mm and thickness (step size) of 250 μm. Slices having a thickness of between 200-400 μm can be used.
Slices were transferred to 3 μm, 8 μm or 100 μm pore inserts provided in static (Griener) or CMR tissue culture plates. […]
100 μl of the slice culture media diluted 1:250 was removed from wells comprising slices in either a static culture plate, a unidirectional system or the CMR culture plate apparatus which was rocked using a rocking apparatus as described herein. The media was used to quantify albumin release using the Rat Albumin ELISA Quantitation Set (catalogue number E110-125) or Human Albumin ELISA Quantitation Set (catalogue number E80-129) following manufacturer's instructions.

[2] = tested on: precision cut liver slices (PCLS); experiment: Expression of fibrosis genes in precision cut liver slices cultured on CMR2; format: cell-based; details: for expression of fibrosis genes (pro-collagen 1, aSMA, TIMP1): PCLS on CMR2, stimulated for 72 h after a 24 h rest period, FIG. 31
Method: as §1, §2
Slices were transferred to 3 μm, 8 μm or 100 μm pore inserts provided in static (Griener) or CMR tissue culture plates. The CMR tissue culture plates of embodiments of the invention comprised either holes between adjacent wells or were rapid prototyped from CAD design to comprise slots between wells. The wells contained slice culture media. The slices were cultured under static, unidirectional or rocked conditions at 37° C. in 5% carbon dioxide in a humidified tissue culture incubator. Twelve or twenty-four well CMR tissue culture plates were used, as indicated.
The slice culture media comprised the following components: • Williams Medium E (Sigma, W4128) • 2% Heat Inactivated Fetal Bovine Serum (Gibco) • Penicillin-Streptomycin (Sigma, P0781) • L-glutamine (Sigma, G7513) • Pyruvate (Sigma, S8636) • 0.5 uM Insulin/transferrin selenium mix (Gibco 51500-056) • 0.1 uM dexamethasone (Sigma, D4902) Urea Assay (Universal Biologicals Cambridge)

[3] = PCLS on CMR2, 3 ng/ml TGFb1 for 48 h, compared to control (untreated), FIG. 26B

Molecule: Lipopolysaccharide [LPS]
- albumin production [1]: did not affect

Molecule: transforming growth factor beta [TGFb]
- expression of fibrosis genes (pro-collagen 1, aSMA, TIMP1) [2]: induce expression

Molecule: transforming growth factor beta 1 [TGFb1]
- expression of the fibrosis gene alpha-smooth muscle actin (aSMA) [2, 3]: induced expression
- expression of the fibrosis gene collagen I [2, 3]: induced expression
- expression of the fibrosis gene tissue inhibitor of metalloprotease 1 (TIMP1) [2, 3]: induced expression

B1: platelet derived growth factor b (protein, UniProt P01127 82-190, looked up)
Platelet-derived growth …: SLGSLTIAEPAMIAECKTRTEVFEISRRLIDRTNANFLVWPPCVEVQRCSGCCNNRNVQCRPTQVQLRPVQVRKIEIVRKKPIFKKATVTLEDHLACKCETVAAARPVT
modifications: homodimer
notes: fibrosis-stimulating factor added to liver slices
- expression of fibrosis genes (pro-collagen 1, aSMA, TIMP1) [2]: induce expression
